Experimental data from ChEMBL document CHEMBL3885861, “Open TG-GATES”.

Species on record: Rattus norvegicus
Test: Open TG-GATES - Regimen: Daily Repeat
Format: toxicity, organism-based, Sprague-Dawley
Design: regimen Daily Repeat, gender Male, age 6 weeks
Conditions: in vivo, po, route gavage; for APTT / Bas / Eos / Fbg / Hb / Ht / Lym / MCH / MCHC / MCV / Mono / Neu / PT / Plat / RBC / Ret / WBC: tissue Blood; for KIDNEY_L / KIDNEY_R / KIDNEY_TOTAL: tissue Kidney; for LIVER: tissue Liver; for A/G / ALP / ALT / AST / BUN / CRE / Ca / Cl / DBIL / GLC / IP / K / LDH / Na / PL / RALB / TBIL / TC / TG / TP / gamma-GTP: tissue Plasma
[1] = 300 mg/kg, 72 h, dose level Middle, time 3 day
[2] = 300 mg/kg, […], dose level Middle, time 7 day
[3] = 300 mg/kg, […], dose level Middle, time 14 day
[4] = 300 mg/kg, […], dose level Middle, time 28 day
[5] = 1000 mg/kg, 72 h, dose level High, time 3 day
[6] = 1000 mg/kg, […], dose level High, time 7 day
[7] = 1000 mg/kg, […], dose level High, time 14 day
[8] = 1000 mg/kg, […], dose level High, time 28 day

## CC(=O)[C@@]1(O)CC[C@H]2[C@@H]3C=C(Cl)C4=CC(=O)CC[C@]4(C)[C@H]3CC[C@@]21C [CHLORMADINONE]
[1]
  TERMINAL_BW: 228.1 g
  APTT: 27.6 s
  Bas: 0%
  Eos: 1%
  Fbg: 334.4 mg/dL
  Hb: 14.1 g/dL
  Ht: 42.3%
  Lym: 76.8%
  MCH: 20.6 pg
  MCHC: 33.2%
  MCV: 62 fL
  Mono: 3.4%
  Neu: 18.4%
  PT: 14.8 s
  Plat: 130.2 x10_4/uL
  RBC: 684 x10_4/ul
  Ret: 5.9%
  WBC: 96.1 x10_2/uL
  KIDNEY_L: 1 g
  KIDNEY_R: 1 g
  KIDNEY_TOTAL: 1.9 g
  LIVER: 11 g
  A/G: 1.2
  ALP: 1623.2 IU/L
  ALT: 51 IU/L
  AST: 76.4 IU/L
  BUN: 17.2 mg/dL
  CRE: 0.2 mg/dL
  Ca: 11 mg/dL
  Cl: 106 meq/L
  DBIL: 0 mg/dL
  GLC: 194.2 mg/dL
  IP: 7.5 mg/dL
  K: 4.6 meq/L
  LDH: 243.2 IU/L
  Na: 141.4 meq/L
  PL: 172.4 mg/dL
  RALB: 3.2 g/dL
  TBIL: 0.008 mg/dL
  TC: 77 mg/dL
  TG: 181.4 mg/dL
  TP: 5.8 g/dL
  gamma-GTP: 1.4 IU/L
[2]
  TERMINAL_BW: 257.8 g
  APTT: 29.5 s
  Bas: 0%
  Eos: 0.6%
  Fbg: 335.8 mg/dL
  Hb: 14.7 g/dL
  Ht: 42.9%
  Lym: 86%
  MCH: 20.8 pg
  MCHC: 34.2%
  MCV: 60.9 fL
  Mono: 2.4%
  Neu: 10.2%
  PT: 14.8 s
  Plat: 129.9 x10_4/uL
  RBC: 704.2 x10_4/ul
  Ret: 4.3%
  WBC: 119.7 x10_2/uL
  KIDNEY_L: 1 g
  KIDNEY_R: 1 g
  KIDNEY_TOTAL: 2.1 g
  LIVER: 12.6 g
  A/G: 1.1
  ALP: 1379.4 IU/L
  ALT: 53 IU/L
  AST: 70.8 IU/L
  BUN: 19.4 mg/dL
  CRE: 0.2 mg/dL
  Ca: 10.9 mg/dL
  Cl: 105.2 meq/L
  DBIL: 0 mg/dL
  GLC: 194.6 mg/dL
  IP: 7.4 mg/dL
  K: 4.6 meq/L
  LDH: 198.8 IU/L
  Na: 139.4 meq/L
  PL: 182.2 mg/dL
  RALB: 3.2 g/dL
  TBIL: 0 mg/dL
  TC: 91.2 mg/dL
  TG: 205.8 mg/dL
  TP: 6 g/dL
  gamma-GTP: 1.8 IU/L
[3]
  TERMINAL_BW: 297.5 g
  APTT: 28.4 s
  Bas: 0%
  Eos: 1%
  Fbg: 326.6 mg/dL
  Hb: 15.2 g/dL
  Ht: 44.7%
  Lym: 78%
  MCH: 19.3 pg
  MCHC: 34%
  MCV: 56.8 fL
  Mono: 2.6%
  Neu: 17.6%
  PT: 14.8 s
  Plat: 105.8 x10_4/uL
  RBC: 787.4 x10_4/ul
  Ret: 3.1%
  WBC: 84.6 x10_2/uL
  KIDNEY_L: 1.1 g
  KIDNEY_R: 1.1 g
  KIDNEY_TOTAL: 2.2 g
  LIVER: 13.1 g
  A/G: 1.1
  ALP: 1447.6 IU/L
  ALT: 44.2 IU/L
  AST: 67 IU/L
  BUN: 20 mg/dL
  CRE: 0.2 mg/dL
  Ca: 10.5 mg/dL
  Cl: 106.8 meq/L
  DBIL: 0 mg/dL
  GLC: 196.2 mg/dL
  IP: 6.9 mg/dL
  K: 4.5 meq/L
  LDH: 161.4 IU/L
  Na: 141.4 meq/L
  PL: 171.6 mg/dL
  RALB: 3.1 g/dL
  TBIL: 0.002 mg/dL
  TC: 83.8 mg/dL
  TG: 173 mg/dL
  TP: 6 g/dL
  gamma-GTP: 1.8 IU/L
[4]
  TERMINAL_BW: 346.1 g
  APTT: 28 s
  Bas: 0%
  Eos: 1%
  Fbg: 313.2 mg/dL
  Hb: 16.2 g/dL
  Ht: 46.4%
  Lym: 82.8%
  MCH: 18.9 pg
  MCHC: 34.9%
  MCV: 54 fL
  Mono: 2.2%
  Neu: 12.8%
  PT: 14.8 s
  Plat: 92.9 x10_4/uL
  RBC: 860 x10_4/ul
  Ret: 2%
  WBC: 105.1 x10_2/uL
  KIDNEY_L: 1.2 g
  KIDNEY_R: 1.2 g
  KIDNEY_TOTAL: 2.4 g
  LIVER: 13.4 g
  A/G: 1.1
  ALP: 1248.8 IU/L
  ALT: 61.6 IU/L
  AST: 76.6 IU/L
  BUN: 19.4 mg/dL
  CRE: 0.2 mg/dL
  Ca: 10.6 mg/dL
  Cl: 105.6 meq/L
  DBIL: 0 mg/dL
  GLC: 186.8 mg/dL
  IP: 6 mg/dL
  K: 4 meq/L
  LDH: 156.2 IU/L
  Na: 141.2 meq/L
  PL: 171 mg/dL
  RALB: 3.3 g/dL
  TBIL: 0.012 mg/dL
  TC: 89.2 mg/dL
  TG: 153.6 mg/dL
  TP: 6.3 g/dL
  gamma-GTP: 2.4 IU/L
[5]
  TERMINAL_BW: 236.9 g
  APTT: 28 s
  Bas: 0%
  Eos: 1.2%
  Fbg: 321.4 mg/dL
  Hb: 13.9 g/dL
  Ht: 42%
  Lym: 76.8%
  MCH: 20.2 pg
  MCHC: 33.1%
  MCV: 61 fL
  Mono: 3%
  Neu: 18.2%
  PT: 14.4 s
  Plat: 126.4 x10_4/uL
  RBC: 690 x10_4/ul
  Ret: 6.9%
  WBC: 122 x10_2/uL
  KIDNEY_L: 1 g
  KIDNEY_R: 1 g
  KIDNEY_TOTAL: 2 g
  LIVER: 12.4 g
  A/G: 1.2
  ALP: 1434.6 IU/L
  ALT: 53 IU/L
  AST: 71 IU/L
  BUN: 17.4 mg/dL
  CRE: 0.2 mg/dL
  Ca: 11 mg/dL
  Cl: 105.2 meq/L
  DBIL: 0 mg/dL
  GLC: 191.8 mg/dL
  IP: 7.7 mg/dL
  K: 4.8 meq/L
  LDH: 190.2 IU/L
  Na: 140.4 meq/L
  PL: 198.4 mg/dL
  RALB: 3.3 g/dL
  TBIL: 0.004 mg/dL
  TC: 95.2 mg/dL
  TG: 154.2 mg/dL
  TP: 6 g/dL
  gamma-GTP: 2 IU/L
[6]
  TERMINAL_BW: 245 g
  APTT: 30 s
  Bas: 0%
  Eos: 0.8%
  Fbg: 327.6 mg/dL
  Hb: 15.1 g/dL
  Ht: 44.5%
  Lym: 84.4%
  MCH: 20.2 pg
  MCHC: 34%
  MCV: 59.5 fL
  Mono: 2.2%
  Neu: 11.8%
  PT: 15 s
  Plat: 127.9 x10_4/uL
  RBC: 748.8 x10_4/ul
  Ret: 3.8%
  WBC: 120.3 x10_2/uL
  KIDNEY_L: 1 g
  KIDNEY_R: 1 g
  KIDNEY_TOTAL: 1.9 g
  LIVER: 11 g
  A/G: 1.3
  ALP: 1456.8 IU/L
  ALT: 45.8 IU/L
  AST: 71.4 IU/L
  BUN: 19.6 mg/dL
  CRE: 0.2 mg/dL
  Ca: 10.8 mg/dL
  Cl: 106.8 meq/L
  DBIL: 0 mg/dL
  GLC: 187.2 mg/dL
  IP: 7.2 mg/dL
  K: 4.6 meq/L
  LDH: 194 IU/L
  Na: 140 meq/L
  PL: 163.8 mg/dL
  RALB: 3.3 g/dL
  TBIL: 0.006 mg/dL
  TC: 83.2 mg/dL
  TG: 136 mg/dL
  TP: 6 g/dL
  gamma-GTP: 2 IU/L
[7]
  TERMINAL_BW: 286.4 g
  APTT: 28.9 s
  Bas: 0%
  Eos: 1%
  Fbg: 322 mg/dL
  Hb: 15.2 g/dL
  Ht: 45%
  Lym: 80%
  MCH: 19.7 pg
  MCHC: 33.9%
  MCV: 58.1 fL
  Mono: 2.8%
  Neu: 14.4%
  PT: 14.7 s
  Plat: 100.3 x10_4/uL
  RBC: 774.6 x10_4/ul
  Ret: 2.6%
  WBC: 106.2 x10_2/uL
  KIDNEY_L: 1.1 g
  KIDNEY_R: 1.1 g
  KIDNEY_TOTAL: 2.2 g
  LIVER: 13.1 g
  A/G: 1.2
  ALP: 1187.6 IU/L
  ALT: 45.2 IU/L
  AST: 71.2 IU/L
  BUN: 18.6 mg/dL
  CRE: 0.2 mg/dL
  Ca: 10.7 mg/dL
  Cl: 107.6 meq/L
  DBIL: 0 mg/dL
  GLC: 195 mg/dL
  IP: 6.8 mg/dL
  K: 4.4 meq/L
  LDH: 160.8 IU/L
  Na: 142 meq/L
  PL: 171.2 mg/dL
  RALB: 3.3 g/dL
  TBIL: 0.004 mg/dL
  TC: 81.2 mg/dL
  TG: 177.4 mg/dL
  TP: 6.1 g/dL
  gamma-GTP: 2 IU/L
[8]
  TERMINAL_BW: 342.2 g
  APTT: 29.7 s
  Bas: 0%
  Eos: 1%
  Fbg: 308 mg/dL
  Hb: 15.8 g/dL
  Ht: 45.5%
  Lym: 86.4%
  MCH: 18.2 pg
  MCHC: 34.9%
  MCV: 52.1 fL
  Mono: 2.2%
  Neu: 9.6%
  PT: 15.1 s
  Plat: 91.7 x10_4/uL
  RBC: 873 x10_4/ul
  Ret: 1.9%
  WBC: 94.9 x10_2/uL
  KIDNEY_L: 1.2 g
  KIDNEY_R: 1.3 g
  KIDNEY_TOTAL: 2.5 g
  LIVER: 14.6 g
  A/G: 1
  ALP: 1076 IU/L
  ALT: 58.4 IU/L
  AST: 70.8 IU/L
  BUN: 17.4 mg/dL
  CRE: 0.2 mg/dL
  Ca: 10.5 mg/dL
  Cl: 105.2 meq/L
  DBIL: 0 mg/dL
  GLC: 194.8 mg/dL
  IP: 6.1 mg/dL
  K: 3.9 meq/L
  LDH: 156 IU/L
  Na: 142 meq/L
  PL: 190.4 mg/dL
  RALB: 3.4 g/dL
  TBIL: 0.006 mg/dL
  TC: 97.6 mg/dL
  TG: 161.6 mg/dL
  TP: 6.6 g/dL
  gamma-GTP: 2.6 IU/L
